Tests used:
Assay type in all cases: cell-based
SMARCA2 [1] = biological target: T1, SMARCA2 (Homo sapiens, UniProt P51531); assay: SMARCA2 Western blot MV4-11 degradation; parameters: SMARCA2 and SMARCA4 protein degradation in MV4-11 cells; endogenous in cells; host or cells: MV4-11; conditions: for Dmax: MV4-11, MV4-11 cells, read-out: SMARCA2 MSD MV411 degradation 24 h: average Dmax %; for Dmax / DC50: 24 h; for DC50 / SMARCA2 MSD MV411 degradation 24 h: average Dmax %: MV4-11 cells; for DC50: read-out: SMARCA2 MSD MV411 degradation 24 h: Mean external-Abs DC50
SMARCA4 = biological target: T2, SMARCA4 (Homo sapiens, UniProt P51532); assay: SMARCA4 Western blot MV4-11 degradation; conditions: for Dmax: MV4-11, MV4-11 cells, read-out: SMARCA4 MSD MV411 degradation 24 h: average Dmax %; for Dmax / DC50: 24 h; for DC50 / SMARCA4 MSD MV411 degradation 24 h: average Dmax %: MV4-11 cells; for DC50: read-out: SMARCA4 MSD MV411 degradation 24 h: Mean external-Abs DC50
T2 construct: SMARCA2 and SMARCA4 protein degradation in MV4-11 cells; endogenous in cells; host or cells: MV4-11

SMARCA2 [2] = biological target: T1, SMARCA2; assay: MSD SMARCA2 degradation in A549 cell line; parameters: endogenous in cells; conditions: for Dmax: A549, A549 cells; for Dmax / DC50: 24 h; for DC50 / SMARCA2 MSD A549 degradation 24 h: Average Dmax %: A549 cells; for DC50: read-out: SMARCA2 MSD A549 degradation 24 h: Average external-Abs DC50
Procedure, shortened: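 A549 cells treated 24 h with compound, 3-fold series 1000 nM down to 0.152 nM plus DMSO. RIPA lysates captured on MSD plates, probed with rabbit anti-SMARCA2/BRM (1 µg/ml) then SULFO-TAG anti-rabbit, electrochemiluminescence read. DC50 and 24 h Dmax reported as letter bins.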

T1 sequence (P51531 whole entry): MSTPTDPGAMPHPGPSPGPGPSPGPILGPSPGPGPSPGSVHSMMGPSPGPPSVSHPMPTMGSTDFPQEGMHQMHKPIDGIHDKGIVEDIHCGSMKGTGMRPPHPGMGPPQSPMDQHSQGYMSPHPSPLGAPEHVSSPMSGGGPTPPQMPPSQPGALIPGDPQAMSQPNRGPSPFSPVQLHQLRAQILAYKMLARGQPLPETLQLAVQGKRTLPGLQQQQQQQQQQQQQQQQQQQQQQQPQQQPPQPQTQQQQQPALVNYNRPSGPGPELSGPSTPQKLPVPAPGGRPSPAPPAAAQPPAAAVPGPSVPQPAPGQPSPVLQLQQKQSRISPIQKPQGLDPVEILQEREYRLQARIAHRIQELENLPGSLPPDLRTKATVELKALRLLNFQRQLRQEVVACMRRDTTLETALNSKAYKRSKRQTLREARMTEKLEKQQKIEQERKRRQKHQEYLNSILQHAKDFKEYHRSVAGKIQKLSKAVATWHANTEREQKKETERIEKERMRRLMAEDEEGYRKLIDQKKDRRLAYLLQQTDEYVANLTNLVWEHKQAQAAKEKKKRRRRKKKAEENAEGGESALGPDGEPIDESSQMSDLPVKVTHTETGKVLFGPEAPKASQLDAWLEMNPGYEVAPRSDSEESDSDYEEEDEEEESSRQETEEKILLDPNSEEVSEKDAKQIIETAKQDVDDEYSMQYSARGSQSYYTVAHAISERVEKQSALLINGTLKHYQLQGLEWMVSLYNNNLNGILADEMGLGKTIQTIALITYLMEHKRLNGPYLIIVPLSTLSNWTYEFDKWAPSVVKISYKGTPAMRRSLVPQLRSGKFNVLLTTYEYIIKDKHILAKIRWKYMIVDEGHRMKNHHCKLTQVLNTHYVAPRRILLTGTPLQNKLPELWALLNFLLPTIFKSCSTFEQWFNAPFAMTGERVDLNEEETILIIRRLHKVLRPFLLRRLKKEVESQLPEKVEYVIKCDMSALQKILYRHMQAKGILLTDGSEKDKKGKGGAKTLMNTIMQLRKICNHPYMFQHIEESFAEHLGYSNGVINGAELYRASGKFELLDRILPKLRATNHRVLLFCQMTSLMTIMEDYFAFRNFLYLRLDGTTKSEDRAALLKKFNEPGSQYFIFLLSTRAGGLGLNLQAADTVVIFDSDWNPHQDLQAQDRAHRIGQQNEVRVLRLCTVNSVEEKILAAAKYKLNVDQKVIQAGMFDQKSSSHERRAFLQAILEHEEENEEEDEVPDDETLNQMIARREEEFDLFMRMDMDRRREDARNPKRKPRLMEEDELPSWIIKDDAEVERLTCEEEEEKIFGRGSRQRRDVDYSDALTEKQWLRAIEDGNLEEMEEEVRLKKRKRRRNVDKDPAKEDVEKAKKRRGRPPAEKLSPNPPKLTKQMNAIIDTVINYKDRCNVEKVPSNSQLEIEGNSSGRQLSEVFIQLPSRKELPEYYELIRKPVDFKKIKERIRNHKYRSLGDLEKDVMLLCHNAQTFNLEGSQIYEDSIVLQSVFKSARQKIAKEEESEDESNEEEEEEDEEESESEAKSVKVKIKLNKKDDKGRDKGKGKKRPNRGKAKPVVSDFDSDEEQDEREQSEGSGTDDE
T2 sequence (P51532 whole entry): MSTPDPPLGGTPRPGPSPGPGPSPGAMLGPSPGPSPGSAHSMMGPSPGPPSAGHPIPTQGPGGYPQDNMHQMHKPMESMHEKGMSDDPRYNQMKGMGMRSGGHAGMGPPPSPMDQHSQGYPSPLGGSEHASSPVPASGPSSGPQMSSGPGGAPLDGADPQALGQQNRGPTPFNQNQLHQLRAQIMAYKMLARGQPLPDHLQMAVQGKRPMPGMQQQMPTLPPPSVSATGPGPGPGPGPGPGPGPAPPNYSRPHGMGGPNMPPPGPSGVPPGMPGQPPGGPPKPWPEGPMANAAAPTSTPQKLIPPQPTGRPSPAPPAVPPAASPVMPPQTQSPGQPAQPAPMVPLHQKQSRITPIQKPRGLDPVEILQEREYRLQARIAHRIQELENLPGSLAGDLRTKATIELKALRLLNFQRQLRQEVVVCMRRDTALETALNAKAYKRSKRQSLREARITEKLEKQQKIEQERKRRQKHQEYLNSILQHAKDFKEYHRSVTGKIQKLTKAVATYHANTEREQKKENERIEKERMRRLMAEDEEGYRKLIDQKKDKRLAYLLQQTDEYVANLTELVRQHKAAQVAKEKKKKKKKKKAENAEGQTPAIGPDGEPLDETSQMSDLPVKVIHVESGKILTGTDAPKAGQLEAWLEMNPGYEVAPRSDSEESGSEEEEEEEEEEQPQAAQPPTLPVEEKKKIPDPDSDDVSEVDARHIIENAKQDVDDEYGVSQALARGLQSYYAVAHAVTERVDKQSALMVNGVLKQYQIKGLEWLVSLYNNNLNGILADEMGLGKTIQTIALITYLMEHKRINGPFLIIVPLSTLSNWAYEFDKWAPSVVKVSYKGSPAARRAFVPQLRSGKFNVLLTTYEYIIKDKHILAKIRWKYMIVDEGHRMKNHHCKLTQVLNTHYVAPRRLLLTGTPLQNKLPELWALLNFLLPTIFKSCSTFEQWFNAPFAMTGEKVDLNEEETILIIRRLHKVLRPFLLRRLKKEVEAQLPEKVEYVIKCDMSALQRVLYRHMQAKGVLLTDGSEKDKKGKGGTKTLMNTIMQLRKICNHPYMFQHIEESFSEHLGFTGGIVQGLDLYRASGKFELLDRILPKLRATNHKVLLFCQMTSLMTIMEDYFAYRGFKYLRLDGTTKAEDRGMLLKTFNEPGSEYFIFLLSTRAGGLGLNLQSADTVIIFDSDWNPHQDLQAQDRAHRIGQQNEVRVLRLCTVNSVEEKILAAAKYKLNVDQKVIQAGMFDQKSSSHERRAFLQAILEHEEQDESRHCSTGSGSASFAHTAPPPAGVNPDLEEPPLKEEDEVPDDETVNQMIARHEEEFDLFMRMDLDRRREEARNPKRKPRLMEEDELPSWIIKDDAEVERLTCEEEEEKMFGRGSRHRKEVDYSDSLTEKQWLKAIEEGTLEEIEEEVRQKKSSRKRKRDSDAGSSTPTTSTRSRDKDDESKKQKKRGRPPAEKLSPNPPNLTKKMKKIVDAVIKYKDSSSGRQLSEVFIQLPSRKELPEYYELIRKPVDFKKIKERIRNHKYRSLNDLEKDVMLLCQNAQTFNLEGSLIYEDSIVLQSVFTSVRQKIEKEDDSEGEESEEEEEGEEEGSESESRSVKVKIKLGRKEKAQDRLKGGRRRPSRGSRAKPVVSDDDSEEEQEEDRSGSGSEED

Structure (SMILES)	Dmax (SMARCA2 [1]) [%]	DC50 (SMARCA2 [1]) [nM]	Dmax (SMARCA4) [%]	DC50 (SMARCA4) [nM]	Dmax (SMARCA2 [2]) [%]	DC50 (SMARCA2 [2]) [nM]	SMARCA2 MSD MV411 degradation 24 h: average Dmax % (SMARCA2 [1])	SMARCA4 MSD MV411 degradation 24 h: average Dmax % (SMARCA4)	SMARCA2 MSD A549 degradation 24 h: Average Dmax % (SMARCA2 [2])
Cc1ncsc1-c1ccc([C@H](C)NC(=O)[C@@H]2C[C@@H](O)CN2C(=O)[C@@H](NC(=O)[C@H]2CC3(C2)C[C@H](N2CCC(c4cnc(N5C6CCC5CN(c5cc(-c7ccccc7O)nnc5N)C6)nc4)CC2)C3)C(C)(C)C)cc1 (single isomer, unassigned) [I-1]	70 to 90	< 100	70 to 90	< 100	> 90	100 to 500	–	–	–
Cc1ncsc1-c1ccc(CNC(=O)[C@@H]2C[C@@H](O)CN2C(=O)[C@@H](NC(=O)[C@H]2CC3(CC[C@H](N4CCC(c5cnc(N6C7CCC6CN(c6cc(-c8ccccc8O)nnc6N)C7)nc5)CC4)CC3)C2)C(C)(C)C)cc1 (stereo partly drawn) [I-13]	70 to 90	< 100	70 to 90	> 1000	> 90	< 100	–	–	–
Cc1ncsc1-c1ccc(CNC(=O)[C@@H]2C[C@@H](O)CN2C(=O)C(c2cc(OCCCOCCCN3CCC(Cn4cc(-c5cc(-c6ccccc6O)nnc5N)cn4)CC3)no2)C(C)C)cc1 (stereo partly drawn) [I-21, (2S,4R)-1-(2-(3-(3-(3-(4-((4-(3-amino-6-(2-hydroxyphenyl)pyridazin-4-yl)-1H-pyrazol-1-yl)methyl)piperidin-1-yl)propoxy)propoxy)isoxazol-5-yl)-3-methylbutanoyl)-4-hydroxy-N-(4-(4-methylthiazol-5-yl)benzyl)pyrrolidine-2-carboxamide]	> 90	< 100	70 to 90	501 to 1000	> 90	> 1000	–	–	–
Cc1ncsc1-c1ccc(CNC(=O)[C@@H]2C[C@@H](O)CN2C(=O)[C@@H](NC(=O)[C@H]2CC3(C2)C[C@H](N2CCC(c4ccc(N5C6CCC5CN(c5cc(-c7ccccc7O)nnc5N)C6)cc4)CC2)C3)C(C)(C)C)nc1 (stereo partly drawn) [I-24, (2S,4R)-1-((2S)-2-(6-(4-(4-(3-(3-amino-6-(2-hydroxyphenyl)pyridazin-4-yl)-3,8-diazabicyclo[3.2.1]octan-8-yl)phenyl)piperidin-1-yl)spiro[3.3]heptane-2-carboxamido)-3,3-dimethylbutanoyl)-4-hydroxy-N-((5-(4-methylthiazol-5-yl)pyridin-2-yl)methyl)pyrrolidine-2-carboxamide]	–	100 to 500	–	> 1000	–	> 1000	–	–	–
Cc1ncsc1-c1ccc(CNC(=O)[C@@H]2C[C@@H](O)CN2C(=O)[C@@H](NC(=O)[C@H]2CC3(C2)C[C@H](N2CC4(CN(c5cnc(N6C7CCC6CN(c6cc(-c8ccccc8O)nnc6N)C7)nc5)C4)C2)C3)C(C)(C)C)cc1 (stereo partly drawn) [I-11, (2S,4R)-1-((2S)-2-(6-(6-(2-(3-(3-amino-6-(2-hydroxyphenyl)pyridazin-4-yl)-3,8-diazabicyclo[3.2.1]octan-8-yl)pyrimidin-5-yl)-2,6-diazaspiro[3.3]heptan-2-yl)spiro[3.3]heptane-2-carboxamido)-3,3-dimethylbutanoyl)-4-hydroxy-N-(4-(4-methylthiazol-5-yl)benzyl)pyrrolidine-2-carboxamide]	70 to 90	< 100	< 50	> 1000	70 to 90	100 to 500	–	–	–
Cc1ncsc1-c1ccc([C@H](C)NC(=O)[C@@H]2C[C@@H](O)CN2C(=O)[C@@H](NC(=O)[C@H]2CCC3(CC2)C[C@H](N2CCC(c4cnc(N5C6CCC5CN(c5cc(-c7ccccc7O)nnc5N)C6)nc4)CC2)C3)C(C)(C)C)cc1 (stereo partly drawn) [I-16, (2S,4R)-1-((2S)-2-(2-(4-(2-(3-(3-amino-6-(2-hydroxyphenyl)pyridazin-4-yl)-3,8-diazabicyclo[3.2.1]octan-8-yl)pyrimidin-5-yl)piperidin-1-yl)spiro[3.5]nonane-7-carboxamido)-3,3-dimethylbutanoyl)-4-hydroxy-N—((S)-1-(4-(4-methylthiazol-5-yl)phenyl)ethyl)pyrrolidine-2-carboxamide]	–	< 100	–	< 100	–	100 to 500	A (A (>90% degradation))	B (B (>70-90% degradation))	A (A (>90% o degradation))
Cc1ncsc1-c1ccc(CNC(=O)[C@@H]2C[C@@H](O)CN2C(=O)[C@@H](NC(=O)[C@H]2CC3(C2)C[C@H](N2CCC(c4ccc(N5C6CCC5CN(c5cc(-c7ccccc7O)nnc5N)C6)cc4)CC2)C3)C(C)(C)C)cn1 (stereo partly drawn) [I-28, (2S,4R)-1-((2S)-2-(6-(4-(4-(3-(3-amino-6-(2-hydroxyphenyl)pyridazin-4-yl)-3,8-diazabicyclo[3.2.1]octan-8-yl)phenyl)piperidin-1-yl)spiro[3.3]heptane-2-carboxamido)-3,3-dimethylbutanoyl)-4-hydroxy-N-((6-(4-methylthiazol-5-yl)pyridin-3-yl)methyl)pyrrolidine-2-carboxamide]	–	100 to 500	–	> 1000	–	> 1000	–	–	–
Cc1ncsc1-c1ccc(CNC(=O)[C@@H]2C[C@@H](O)CN2C(=O)[C@@H](NC(=O)C2CC3(C2)CN(C2CCN(c4cnc(N5C6CCC5CN(c5cc(-c7ccccc7O)nnc5N)C6)nc4)CC2)C3)C(C)(C)C)cc1 [I-10, 2-(1-(2-(3-(3-amino-6-(2-hydroxyphenyl)pyridazin-4-yl)-3,8-diazabicyclo[3.2.1]octan-8-yl)pyrimidin-5-yl)piperidin-4-yl)-N—((S)-1-((2S,4R)-4-hydroxy-2-((4-(4-methylthiazol-5-yl)benzyl)carbamoyl)pyrrolidin-1-yl)-3,3-dimethyl-1-oxobutan-2-yl)-2-azaspiro[3.3]heptane-6-carboxamide]	70 to 90	< 100	< 50	> 1000	70 to 90	501 to 1000	–	–	–
Cc1ncsc1-c1ccc([C@H](C)NC(=O)[C@@H]2C[C@@H](O)CN2C(=O)[C@@H](NC(=O)[C@H]2CC3(C2)C[C@H](N2CCC(c4cnc(N5C6CCC5CN(c5cc(-c7ccccc7O)nnc5N)C6)nc4)CC2)C3)C(C)(C)C)cc1 (single isomer, unassigned) [I-2]	–	< 100	–	< 100	–	< 100	A (A (>90% degradation))	B (B (>70-90% degradation))	A (A (>90% o degradation))
Cc1ncsc1-c1ccc(C2(NC(=O)[C@@H]3C[C@@H](O)CN3C(=O)[C@@H](NC(=O)[C@H]3CC4(C3)C[C@H](N3CCC(c5cnc(N6C7CCC6CN(c6cc(-c8ccccc8O)nnc6N)C7)nc5)CC3)C4)C(C)(C)C)CC2)cc1 (single isomer, unassigned) [I-4]	–	< 100	–	< 100	–	100 to 500	A (A (>90% degradation))	A (A (>90% degradation))	A (A (>90% o degradation))
Cn1nccc1-c1ccc(CNC(=O)[C@@H]2C[C@@H](O)CN2C(=O)[C@@H](NC(=O)[C@H]2CC3(C2)C[C@H](N2CCC(c4cnc(N5C6CCC5CN(c5cc(-c7ccccc7O)nnc5N)C6)nc4)CC2)C3)C(C)(C)C)cc1 (stereo partly drawn) [I-36, (2S,4R)-1-((2S)-2-(6-(4-(2-(3-(3-amino-6-(2-hydroxyphenyl)pyridazin-4-yl)-3,8-diazabicyclo[3.2.1]octan-8-yl)pyrimidin-5-yl)piperidin-1-yl)spiro[3.3]heptane-2-carboxamido)-3,3-dimethylbutanoyl)-4-hydroxy-N-(4-(1-methyl-1H-pyrazol-5-yl)benzyl)-pyrrolidine-2-carboxamide]	–	< 100	–	> 1000	–	100 to 500	B (B (>70-90% degradation))	D (D (<50% degradation))	B (B (>70-90% o degradation))
Cn1nccc1-c1ccc(CNC(=O)[C@@H]2C[C@@H](O)CN2C(=O)[C@@H](NC(=O)[C@H]2CC[C@H](c3cnc(N4C5CCC4CN(c4cc(-c6ccccc6O)nnc4N)C5)nc3)CC2)C(C)(C)C)cc1 [I-68, (2S,4R)-1-((2S)-2-((1r,4S)-4-(2-(3-(3-amino-6-(2-hydroxyphenyl)pyridazin-4-yl)-3,8-diazabicyclo[3.2.1]octan-8-yl)pyrimidin-5-yl)cyclohexanecarboxamido)-3,3-dime-thylbutanoyl)-4-hydroxy-N-(4-(1-methyl-1H-pyrazol-5-yl)benzyl)pyrrolidine-2-carboxamide]	> 90	< 100	> 90	< 100	> 90	< 100	–	–	–
Cc1ncsc1-c1ccc(CNC(=O)[C@@H]2C[C@@H](O)CN2C(=O)[C@@H](NC(=O)[C@H]2CCC3(CC2)C[C@H](N2CCC(c4cnc(N5C6CCC5CN(c5cc(-c7ccccc7O)nnc5N)C6)nc4)CC2)C3)C(C)(C)C)cc1 (stereo partly drawn) [I-43, (2S,4R)-1-((2S)-2-(2-(4-(2-(3-(3-amino-6-(2-hydroxyphenyl)pyridazin-4-yl)-3,8-diazabicyclo[3.2.1]octan-8-yl)pyrimidin-5-yl)piperidin-1-yl)spiro[3.5]nonane-7-carboxamido)-3,3-dimethylbutanoyl)-4-hydroxy-N-(4-(4-methylthiazol-5-yl)benzyl)-pyrrolidine-2-carboxamide]	–	< 100	–	> 1000	–	100 to 500	–	–	–
